Results taken from patent publication US12338283B2, “Methods for targeting the immune checkpoint PD1 pathway for treating pulmonary fibrosis” (CEDARS-SINAI MEDICAL CENTER, priority 2017, dated 2025).

Columns and labels:
patients with IPF = details: cited from earlier work
[1] = test system: NSG mice injected with CD274^high IPF fibroblasts; assay: Humanized SCID IPF model: lung fibrosis (hydroxyproline, Masson trichrome) in NSG mice injected with IPF fibroblasts; assay type: in vivo, mouse; details: mice receiving CD274^high lung fibroblasts, compared with vehicle (CMC-Na) treated mice (FIG. 19E, 19F)
Description: FIG. 19A-J show CD274 and FAK signaling are required for lung fibroblast invasion. In the experimental results shown in FIG. 19A-FIG. 19C, equal number of cells were seeded in the upper part of transwells and cell migration and invasion assays were performed (n=3 per group). […] Scale bar: 1 mm. FIG. 19B and FIG. 19C are graphs that show cell migration index or invasion index, which was calculated as the number of cells attached to the bottom of control or Matrigel-coated membrane after 24 h, normalized to respective CD274^low lung fibroblasts. […] GAPDH served as equal loading control. FIG. 19E, FIG. 19G, and FIG. 19I show hydroxyproline contents in lung tissues. FIG. 19F, FIG. 19H and FIG. 19J show Masson trichrome staining of collagen on lung sections from NSG mice injected with CD274^low and CD274^high IPF fibroblasts treated with VS4718, vehicle control CMC-Na, or from NSG mice receiving gRNA-CTL or CD274 KO lung fibroblasts (n=6 per group), or from NSG mice injected with CD274^high IPF fibroblasts treated with Q-CD274 (n=12 per group) or isotype control IgG (n=12 for D0-35 IgG, n=11 for D35-63 IgG). Scale bars (FIG. 19F, FIG. 19H): 1 mm (top panel), 100 μm (middle and lower panels). Throughout, data are mean±sem. *P<0.05; **P<0.01 by student's t test (FIG. 19B, FIG. 19C, FIG. 19E, FIG. 19G).
The effect of the inhibition is assessed with hyroxyproline assay. […]

CD274+ fibroblasts = assay: Transwell migration assay of flow-sorted IPF lung fibroblasts; assay type: cell-based, human; details: CD274^low and CD274^high IPF fibroblasts, 24 h, vs vehicle DMSO (FIG. 19A-C)
Description: (§1) CD274+ and CD274-fibroblast were flow sorted from fibroblasts of healthy and IPF lungs. The cells were plated onto transwells for migration assay, with and without anti-CD274 antibody (α-CD274) and control IgG. Migratory fibroblasts were fixed, stained, and photographed. […] CD274+ and CD274− fibroblast were flow sorted from fibroblasts of healthy and IPF lungs. The cells were plated onto matrigel chamber for invasion assay, with and without anti-CD274 antibody (α-CD274) and control IgG. Invasive fibroblasts were fixed, stained, and photographed.
FIG. 19A-J show CD274 and FAK signaling are required for lung fibroblast invasion. In the experimental results shown in FIG. 19A-FIG. 19C, equal number of cells were seeded in the upper part of transwells and cell migration and invasion assays were performed (n=3 per group). […] Scale bar: 1 mm. FIG. 19B and FIG. 19C are graphs that show cell migration index or invasion index, which was calculated as the number of cells attached to the bottom of control or Matrigel-coated membrane after 24 h, normalized to respective CD274^low lung fibroblasts. […] GAPDH served as equal loading control. FIG. 19E, FIG. 19G, and FIG. 19I show hydroxyproline contents in lung tissues. […]
(§2) CD274+ and CD274− fibroblasts from IPF and healthy lungs were flow sorted and analyzed with an invasion assay.

CD274+ IPF fibroblasts = assay: Matrigel invasion assay of flow-sorted IPF lung fibroblasts; assay type: cell-based, human
Description: as §1
FIG. 10A is a schematic representation of an in vitro invasion assay: Lung fibroblasts were seeded in the upper part of transwells. Cells attached to the bottom of Matrigel-coated membrane after 24 h were considered invasive fibroblasts. Cells that remained on top of Matrigel-coated membrane were considered non-invasive fibroblasts. […]
FIG. 19A-J show CD274 and FAK signaling are required for lung fibroblast invasion. […] FIG. 19B and FIG. 19C are graphs that show cell migration index or invasion index, which was calculated as the number of cells attached to the bottom of control or Matrigel-coated membrane after 24 h, normalized to respective CD274^low lung fibroblasts. […]
as §2

## COc1ccccc1Oc1c(NS(=O)(=O)c2ccc(C(C)(C)C)cc2)nc(-c2ncccn2)nc1OCCO [Bosentan]
Patients with IPF
  clinical benefit in patients with IPF: not better than placebo

## Cc1ccc(=O)n(-c2ccccc2)c1 [Pirfenidone]
Patients with IPF
  disease progression: reduces disease progression
  improve lung function or reduce fibrosis: neither

## CNC(=O)c1ccccc1Nc1cc(Nc2ccc(N3CCOCC3)cc2OC)ncc1C(F)(F)F [VS4718]
[1]
  development of fibrosis: prevented the development of fibrosis
CD274+ fibroblasts
  cell migration of lung fibroblasts: significantly blocked
CD274+ IPF fibroblasts; CD274^low and CD274^high IPF fibroblasts, Matrigel-coated membrane, 24 h, vs vehicle DMSO (FIG. 19A-C)
  cell invasion of lung fibroblasts: significantly blocked
CD274+ IPF fibroblasts; flow-sorted CD274+ IPF fibroblasts, matrigel chamber
  invasiveness / invasive phenotype of CD274+ fibroblasts: reduced invasiveness

## CC(=O)N[C@@H](CS)C(=O)O [acetylcysteine]
Patients with IPF
  clinical benefit in patients with IPF: some benefits

## COC(=O)c1ccc2c(c1)NC(=O)/C2=C(\Nc1ccc(N(C)C(=O)CN2CCN(C)CC2)cc1)c1ccccc1 [nintedanib]
Patients with IPF
  improve lung function or reduce fibrosis: neither

B1: Interferon gamma-1b: interferon-gamma replenishment tested in IPF trials (protein, UniProt P01579 24-161, looked up)
Interferon gamma: QDPYVKEAENLKKYFNAGHSDVADNGTLFLGILKNWKEESDRKIMQSQIVSFYFKLFKNFKDDQSIQKSVETIKEDMNVKFFNSNKKKRDDFEKLTNYSVTDLNVQRKAIHELIQVMAELSPAAKTGKRKRSQMLFRG
Patients with IPF
  survival for patients with IPF: did not improve survival
